Kd data for 17 compounds are collected here from ChEMBL document CHEMBL3991601, “The target landscape of clinical kinase drugs” (Science, 2017).

The source made the active and inactive calls.

The target in assay [1] is 26S proteasome regulatory subunit 6B (Homo sapiens, UniProt P43686).
Assay [2] addresses T1, AarF domain-containing protein kinase 1 (Homo sapiens, UniProt Q86TW2).
T1 sequence (Q86TW2 whole entry): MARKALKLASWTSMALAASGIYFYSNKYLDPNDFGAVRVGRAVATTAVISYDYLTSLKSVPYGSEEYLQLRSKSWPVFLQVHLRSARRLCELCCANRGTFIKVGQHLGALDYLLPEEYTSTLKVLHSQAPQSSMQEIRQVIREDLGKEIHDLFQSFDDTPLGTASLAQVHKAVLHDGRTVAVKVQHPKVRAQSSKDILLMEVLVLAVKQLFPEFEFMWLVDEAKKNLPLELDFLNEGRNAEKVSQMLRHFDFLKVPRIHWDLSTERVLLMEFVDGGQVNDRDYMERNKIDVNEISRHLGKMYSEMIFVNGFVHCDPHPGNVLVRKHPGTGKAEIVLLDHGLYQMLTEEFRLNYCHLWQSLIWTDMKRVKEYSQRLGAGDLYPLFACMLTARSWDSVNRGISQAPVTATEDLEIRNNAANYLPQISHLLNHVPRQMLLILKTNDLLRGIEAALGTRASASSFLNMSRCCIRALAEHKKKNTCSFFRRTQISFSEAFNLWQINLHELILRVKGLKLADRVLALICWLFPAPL

The target in assay [3] is Adenylate kinase 2, mitochondrial (Homo sapiens, UniProt P54819).
Assay [4] concerns the target T2, Serine/threonine-protein kinase PLK4 (Homo sapiens, UniProt O00444).
T2 sequence (O00444 whole entry): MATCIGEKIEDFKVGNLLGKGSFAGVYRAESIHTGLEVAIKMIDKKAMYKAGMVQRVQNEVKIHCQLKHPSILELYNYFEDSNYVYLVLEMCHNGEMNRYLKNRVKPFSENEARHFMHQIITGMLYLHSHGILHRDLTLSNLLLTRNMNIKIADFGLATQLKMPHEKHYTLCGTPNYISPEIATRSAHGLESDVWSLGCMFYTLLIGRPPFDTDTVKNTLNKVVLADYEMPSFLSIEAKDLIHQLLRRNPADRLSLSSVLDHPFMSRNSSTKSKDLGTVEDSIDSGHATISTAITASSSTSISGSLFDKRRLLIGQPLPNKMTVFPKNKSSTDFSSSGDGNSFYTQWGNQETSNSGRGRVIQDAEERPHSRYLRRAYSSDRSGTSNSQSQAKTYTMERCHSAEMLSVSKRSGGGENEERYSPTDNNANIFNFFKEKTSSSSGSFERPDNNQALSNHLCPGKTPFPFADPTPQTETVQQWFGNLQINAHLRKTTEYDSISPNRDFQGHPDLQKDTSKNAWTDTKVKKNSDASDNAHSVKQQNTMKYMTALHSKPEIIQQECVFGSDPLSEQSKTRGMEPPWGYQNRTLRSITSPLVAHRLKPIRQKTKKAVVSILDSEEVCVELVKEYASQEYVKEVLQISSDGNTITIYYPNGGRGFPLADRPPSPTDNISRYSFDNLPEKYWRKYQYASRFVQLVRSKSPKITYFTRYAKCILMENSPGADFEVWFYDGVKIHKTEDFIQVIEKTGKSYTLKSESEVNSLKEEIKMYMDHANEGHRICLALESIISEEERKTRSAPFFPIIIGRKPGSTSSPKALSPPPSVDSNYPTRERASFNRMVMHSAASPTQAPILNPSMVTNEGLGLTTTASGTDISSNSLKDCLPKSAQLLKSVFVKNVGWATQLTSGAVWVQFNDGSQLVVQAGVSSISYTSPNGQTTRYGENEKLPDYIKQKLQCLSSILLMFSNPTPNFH

Assay [5] concerns the target Tyrosine-protein kinase SYK (Homo sapiens, UniProt P43405).
Assay [6] addresses T3, Activin receptor type-1B (Homo sapiens, UniProt P36896).
T3 sequence (P36896 whole entry): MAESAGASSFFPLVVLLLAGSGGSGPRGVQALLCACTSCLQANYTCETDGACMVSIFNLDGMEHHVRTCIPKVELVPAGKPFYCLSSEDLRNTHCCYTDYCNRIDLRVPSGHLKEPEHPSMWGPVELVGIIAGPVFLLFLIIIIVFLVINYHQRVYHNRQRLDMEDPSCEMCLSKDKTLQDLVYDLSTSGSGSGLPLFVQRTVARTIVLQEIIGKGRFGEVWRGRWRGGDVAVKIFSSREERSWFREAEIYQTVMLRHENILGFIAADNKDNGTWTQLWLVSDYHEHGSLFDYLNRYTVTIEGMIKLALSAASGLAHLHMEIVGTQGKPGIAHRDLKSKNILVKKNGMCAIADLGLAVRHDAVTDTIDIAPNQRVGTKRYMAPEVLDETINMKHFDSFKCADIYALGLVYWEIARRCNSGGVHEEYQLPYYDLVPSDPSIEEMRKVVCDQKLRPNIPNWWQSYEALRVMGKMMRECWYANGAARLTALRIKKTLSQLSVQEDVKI

Assay [7] has as its target T4, Beta-adrenergic receptor kinase 1 (Homo sapiens, UniProt P25098).
T4 sequence (P25098 whole entry): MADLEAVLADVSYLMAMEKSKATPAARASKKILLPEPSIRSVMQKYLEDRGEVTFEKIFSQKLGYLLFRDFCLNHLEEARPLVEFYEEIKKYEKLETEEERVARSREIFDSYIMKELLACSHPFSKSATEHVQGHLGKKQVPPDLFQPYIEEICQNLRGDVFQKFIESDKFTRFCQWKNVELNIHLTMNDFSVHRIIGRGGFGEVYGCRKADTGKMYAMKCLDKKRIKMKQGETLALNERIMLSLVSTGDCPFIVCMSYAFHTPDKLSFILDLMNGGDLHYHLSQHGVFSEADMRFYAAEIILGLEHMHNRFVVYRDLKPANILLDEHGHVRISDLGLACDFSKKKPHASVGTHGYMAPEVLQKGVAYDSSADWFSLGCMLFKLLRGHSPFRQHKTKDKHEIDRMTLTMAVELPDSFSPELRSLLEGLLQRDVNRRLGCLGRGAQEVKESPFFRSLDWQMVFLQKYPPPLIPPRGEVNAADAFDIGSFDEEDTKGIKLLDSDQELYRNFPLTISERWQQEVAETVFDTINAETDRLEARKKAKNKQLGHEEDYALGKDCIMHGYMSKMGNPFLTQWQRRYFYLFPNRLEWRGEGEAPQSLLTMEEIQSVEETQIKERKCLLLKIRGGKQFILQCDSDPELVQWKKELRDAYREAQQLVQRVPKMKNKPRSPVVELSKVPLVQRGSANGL
Also: in the data inactive means no Kd found up to 30 µM.

26S proteasome regulatory subunit 6B, sequence (P43686 whole entry, the tested form may be a part): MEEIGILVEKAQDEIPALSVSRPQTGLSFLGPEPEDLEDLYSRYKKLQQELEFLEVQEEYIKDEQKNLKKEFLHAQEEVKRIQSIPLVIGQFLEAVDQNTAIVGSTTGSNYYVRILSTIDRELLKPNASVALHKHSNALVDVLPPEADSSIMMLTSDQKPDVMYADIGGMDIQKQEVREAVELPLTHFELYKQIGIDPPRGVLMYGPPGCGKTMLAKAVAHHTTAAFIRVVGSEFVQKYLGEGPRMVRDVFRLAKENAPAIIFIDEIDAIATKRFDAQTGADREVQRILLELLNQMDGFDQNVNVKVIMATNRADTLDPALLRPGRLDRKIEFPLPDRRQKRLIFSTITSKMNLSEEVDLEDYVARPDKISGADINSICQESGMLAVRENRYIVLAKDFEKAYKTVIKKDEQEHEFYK

`CCc1nc(C(N)=O)c(Nc2ccc(N3CCC(N4CCN(C)CC4)CC3)c(OC)c2)nc1NC1CCOCC1` [GILTERITINIB]: the Kd in assay [1] is > 30 µM (inactive); in assay [2], 0.152 µM (active); in assay [3], > 30 µM (inactive); in assay [4], 0.018 µM; in assay [5] it was 4.04 µM (active); in assay [6] it was > 30 µM (inactive). In addition, the Kd in assay [7] is > 30 µM (inactive).
Take `Cc1cc(Nc2nc(N[C@@H](C)c3ncc(F)cn3)ncc2Cl)n[nH]1` [AZD-1480]: the Kd in assay [1] was > 30 µM (inactive); in assay [2], > 30 µM (inactive); in assay [3], > 30 µM (inactive); in assay [4] it was 0.308 µM (active); in assay [5] it was > 30 µM (inactive); in assay [6], > 30 µM (inactive). Further, the Kd in assay [7] was > 30 µM (inactive).
Turning to `C=CCn1c(=O)c2cnc(Nc3ccc(N4CCN(C)CC4)cc3)nc2n1-c1cccc(C(C)(C)O)n1` [ADAVOSERTIB], the Kd is > 30 µM (inactive) in assay [1]; 1.9 µM (active) in assay [2]; > 30 µM (inactive) in assay [3]; > 30 µM (inactive) in assay [4]; > 30 µM (inactive) in assay [6]; > 30 µM (inactive) in assay [7].
With `CC1(C)CNc2cc(NC(=O)c3cccnc3NCc3ccncc3)ccc21` [MOTESANIB], the Kd in assay [1], in assay [2], in assay [3] and in assay [7] was > 30 µM (inactive) throughout.
Consider `COc1cc2c(N3CCN(C(=O)Nc4ccc(OC(C)C)cc4)CC3)ncnc2cc1OCCCN1CCCCC1` [TANDUTINIB], for which the Kd in assay [1], in assay [2], in assay [3] and in assay [7] was > 30 µM (inactive) throughout.
Take `O=S(=O)(c1cccc2cnccc12)N1CCCNCC1` [FASUDIL]: the Kd in assay [1], in assay [2], in assay [3], in assay [5], in assay [6] and in assay [7] was > 30 µM (inactive) throughout.
On to `N#CCNC(=O)c1ccc(-c2ccnc(Nc3ccc(N4CCOCC4)cc3)n2)cc1` [MOMELOTINIB], for which the Kd in assay [1] is > 30 µM (inactive); in assay [2] it was 0.217 µM; in assay [3] it was > 30 µM (inactive); in assay [5], > 30 µM (inactive); in assay [6] it was > 30 µM (inactive); in assay [7], > 30 µM (inactive).
Regarding `CN(C)C/C=C/C(=O)Nc1cc2c(Nc3ccc(F)c(Cl)c3)ncnc2cc1O[C@H]1CCOC1` [AFATINIB], the Kd in assay [1], in assay [2], in assay [3] and in assay [7] was > 30 µM (inactive) in each case.
Regarding `Cn1cnc2c(F)c(Nc3ccc(Br)cc3Cl)c(C(=O)NOCCO)cc21` [SELUMETINIB], the Kd in assay [1], in assay [2], in assay [3] and in assay [7] was > 30 µM (inactive) in each case.
`Cn1cc(-c2[nH]c3cc(NC(=O)[C@H](N)C4CCCCC4)cc4c3c2C=NNC4=O)cn1`: the Kd in assay [1] is > 30 µM (inactive); in assay [2], 4.5 µM (active); in assay [3], > 30 µM (inactive); in assay [5], > 30 µM (inactive); in assay [6], > 30 µM (inactive); in assay [7], 3.56 µM (active).
Consider `C=CCN(/C=C1/C(=O)O[C@H](COC)[C@@]2(C)C1=C(O)C(=O)C1=C2[C@H](OC(C)=O)C[C@]2(C)C(=O)CC[C@@H]12)CC=C` [SONOLISIB], for which the Kd in assay [1], in assay [2], in assay [4], in assay [5], in assay [6] and in assay [7] was > 30 µM (inactive) in each case.
Turning to `COc1cc(Nc2ncc(F)c(Nc3ccc4c(n3)N(COP(=O)(O)O)C(=O)C(C)(C)O4)n2)cc(OC)c1OC` [FOSTAMATINIB], the Kd was > 30 µM (inactive) in assay [1]; 1.07 µM (active) in assay [2]; > 30 µM (inactive) in assay [3]; 0.57 µM (active) in assay [4]; > 30 µM (inactive) in assay [6]; > 30 µM (inactive) in assay [7].
Turning to `COc1cc2c(Oc3ccc4[nH]c(C)cc4c3F)ncnc2cc1OCCCN1CCCC1` [CEDIRANIB], the Kd in assay [1], in assay [2], in assay [3] and in assay [7] was > 30 µM (inactive) in each case.
On to `C[C@]1(O)C[C@@H](c2nc(-c3ccc4ccc(-c5ccccc5)nc4c3)c3c(N)nccn32)C1` [LINSITINIB], for which the Kd in assay [1], in assay [2], in assay [3], in assay [6] and in assay [7] was > 30 µM (inactive) each time.
In the case of `CN(c1ncccc1CNc1nc(Nc2ccc3c(c2)CC(=O)N3)ncc1C(F)(F)F)S(C)(=O)=O` [PF-00562271], the Kd in assay [1], in assay [2], in assay [3], in assay [6] and in assay [7] was > 30 µM (inactive) throughout.
With `C[C@@]1(C(=O)Nc2ccc(F)nc2)CCCN1c1nc(Nc2cc(C3CC3)n[nH]2)c2cccn2n1` [BMS-754807], the Kd in assay [1], in assay [2] and in assay [3] was > 30 µM (inactive) each time.
Regarding `CC[C@@](C)(Nc1ccnc(-c2c[nH]c3ncccc23)n1)C(=O)NCC(F)(F)F` [DECERNOTINIB], the Kd in assay [1], in assay [2], in assay [3], in assay [5], in assay [6] and in assay [7] was > 30 µM (inactive) throughout.

Usually Kd stands for the constant that tells how readily two partners part at equilibrium.
